Consider six compounds from ChEMBL document CHEMBL1131625, “Neurosteroid analogues. 6. The synthesis and GABAA receptor pharmacology of enantiomers of dehydroepiandrosterone sulfate, pregnenolone sulfate, and (3alpha,5beta)-3-hydroxypregnan-20-one sulfate” (J Med Chem, 1998).

In general, Ki refers to a measure of affinity in units of concentration, obtained from inhibition or displacement. The term IC50 denotes the midpoint of a concentration-inhibition curve. A high value points to weaker potency.

The species entered for assay [1] is Rattus norvegicus. Kind of assay: Inhibition of GABA-mediated currents by compound. It counts as functional.
The target of assay [2] is GABA-A receptor; anion channel. The experiment in a line: Inhibitory activity against Gamma-aminobutyric acid A (GABA-A) receptor of rat hippocampal neurons. It counts as tissue-based, Hippocampus.
Assay [3] is filed under the species Rattus norvegicus. Kind of assay: The Non-competitive block of GABA-mediated currents in cultured neurons from rat ventral mesencephalon. It counts as functional.

Consider `CC(=O)[C@@H]1CC[C@H]2[C@@H]3CC[C@H]4C[C@@H](OS(=O)(=O)O)CC[C@@]4(C)[C@H]3CC[C@@]12C`, for which, in the assay listed under Rattus norvegicus [1], the affinity, expressed as Ki, was 47 µM.
For the compound `CC(=O)[C@@H]1CC[C@@H]2[C@H]3CC=C4C[C@H](OS(=O)(=O)O)CC[C@@]4(C)[C@@H]3CC[C@]21C`, the concentration for half-maximal inhibition (IC50) in assay [2] came out at 76 µM. This counts as double-digit micromolar.
In turn, `CC(=O)[C@H]1CC[C@H]2[C@@H]3CC[C@@H]4C[C@H](OS(=O)(=O)O)CC[C@]4(C)[C@H]3CC[C@]12C` registered an inhibitory constant (Ki) in the assay filed under Rattus norvegicus [1] of 39 µM. The same compound returned a concentration for half-maximal inhibition (IC50) in assay [2] of 39 µM.
Take `CC(=O)[C@H]1CC[C@H]2[C@@H]3CC=C4C[C@@H](OS(=O)(=O)O)CC[C@]4(C)[C@H]3CC[C@]12C`: the IC50 in assay [2] is 82 µM.
`C[C@@]12CC[C@@H]3[C@H](CC=C4C[C@H](OS(=O)(=O)O)CC[C@]43C)[C@H]1CCC2=O` gave a Ki in the assay filed under Rattus norvegicus [3] of 81 µM. Moreover, the IC50 in assay [2] amounted to 80 µM.
`C[C@]12CC[C@H](OS(=O)(=O)O)CC1=CC[C@@H]1[C@@H]2CC[C@]2(C)C(=O)CC[C@@H]12`: the inhibition constant Ki in the assay filed under Rattus norvegicus [3] is 13 µM. For the same compound, the IC50 in assay [2] was found to be 11 µM.
